Counter-ions that a name gives are not always drawn.

Data on 15 compounds can be found in US9120728B2, “Modulators of cortical dopaminergic- and NMDA-receptor-mediated glutamatergic neurotransmission” (INTEGRATIVE RESEARCH LABORATORIES SWEDEN AB, priority 2011, dated 2015).

In data set [1] the test system is DOPAC (3,4-dihydroxyphenylacetic acid) in the rat striatum. The data set can be described thus: Increase of DOPAC (3,4-dihydroxyphenylacetic acid) in the rat striatum after systemic administration. Type of data set: in vivo. The settings on record: sc, estimated ED50 on increase of DOPAC in rat striatum, dose range 0-100 μmol/kg s.c., curve fitting. An excerpt: The increased turnover of dopamine in the terminal areas of the ascending dopaminergic projections of the mammalian brain can be illustrated by measuring of changes in biochemical indices in the brain with the characteristic features of dopamine antagonists, e.g. producing increases in concentrations of dopamine metabolites such as 3,4-dihydroxyphenyl-acetic acid (DOPAC) in the striatum.
After the behavioural activity sessions, the rats are decapitated and their brains rapidly taken out and put on an ice-cold petri-dish. The limbic forebrain, the striatum, the frontal cortex and the remaining hemispheral parts of each rat are dissected and frozen. Each brain part is subsequently analyzed with respect to its content of monoamines and their metabolites.
The monoamine transmitter substances (NA (noradrenaline), DA (dopamine), 5-HT (serotonin)) as well as their amine (NM (normethanephrine), 3-MT (3-methoxytyramine)) and acid (DOPAC (3,4-dihydroxyphenylacetic acid), 5-HIAA (5-hydroxyindoleacetic acid), HVA (homovanillic acid)) metabolites are quantified in brain tissue homogenates by HPLC separations and electrochemical detection
The analytical method is based on two chromatographic separations dedicated for amines or acids. Two chromatographic systems share a common auto injector with a 10-port valve and two sample loops for simultaneous injection on the two systems. Both systems are equipped with a reverse phase column (Luna C18(2), dp 3 μm, 50×2 mm i.d., Phenomenex) and electrochemical detection is accomplished at two potentials on glassy carbon electrodes (MF-1000, Bioanalytical Systems, Inc.). The column effluent is passed via a T-connection to the detection cell or to a waste outlet. This is accomplished by two solenoid valves, which block either the waste or detector outlet. By preventing the chromatographic front from reaching the detector, better detection conditions are achieved. The aqueous mobile phase (0.4 ml/min) for the acid system contains citric acid 14 mM, sodium citrate 10 mM, MeOH 15% (v/v) and EDTA 0.1 mM. Detection potentials relative to Ag/AgCl reference are 0.45 and 0.60V. […] Detection potentials relative to Ag/AgCl reference are 0.45 and 0.65V.
ED50 value for the increase of DOPAC in striatum is calculated by curve fitting. The evaluation is based on 40 animals over the dose range 0, 3.7, 11, 33 and 100 μmol/kg s.c. in two combined experiments. The DOPAC levels are normalised to control and fitted by least square minimization to the function “End-(End-Control)/(1+(dose/ED50)^slope)”. The four parameters (Control, End, ED50 and Slope) are fitted with the restrictions: ED50>0, 0.5<Slope<3, 350<End<400% of control. To estimate confidence levels for the parameters, the fit is repeated 100 times with a random evenly distributed squared weight (0 to 1) for every measurement value. Presented ED50-ranges cover 95% of these values.

A further data set deals with drug-naive rats. The data set can be described thus: Effects on spontaneous locomotion (locomotor activity in drug-naive rats). The format is in vivo, rat. The settings on record: recorded for 60 minutes immediately after drug administration. The method, then: Prior art dopamine receptor antagonists are known to induce profound decrease in locomotor activity (catalepsy).
Behavioural activity is measured using eight Digiscan activity monitors (RXYZM (16) TAO, Omnitech Electronics, Columbus, Ohio, USA), connected to an Omnitech Digiscan analyzer and an Apple Macintosh computer equipped with a digital interface board (NB DIO-24, National Instruments, USA). Each activity monitor consists of a quadratic metal frame (W×L=40 cm×40 cm) equipped with photobeam sensors. During measurements of behavioural activity, a rat is put in a transparent acrylic cage (WxLxH, 40×40×30 cm) which in turn is placed in the activity monitor. Each activity monitor is equipped with three rows of infrared photobeam sensors, each row consisting of 16 sensors. Two rows are placed along the front and the side of the floor of the cage, at a 90° angle, and the third row is placed 10 cm above the floor to measure vertical activity. Photobeam sensors are spaced 2.5 cm apart. Each activity monitor is fitted in an identical sound and light attenuating box containing a weak house light and a fan.
The computer software is written using object oriented programming (LabVIEW®, National instruments, Austin, Tex., USA).
Behavioural data from each activity monitor, representing the position (horizontal center of gravity and vertical activity) of the animal at each time, are recorded at a sampling frequency of 25 Hz and collected using a custom written LABView™ application. The data from each recording session are stored and analyzed with respect to distance traveled. Each behavioural recording session lasts 60 min, starting approximately 4 min after the injection of test compound. Similar behavioural recording procedures are applied for drug-naïve and drug pre-treated rats. Rats pre-treated with d-amphetamine are given a dose of 1.5 mg/kg i.p. 10 min before the recording session in the activity monitor. Rats pre-treated with MK-801 are given a dose of 0.7 mg/kg i.p. 90 min before the recording session in the activity monitor. The results are presented as counts/60 minutes, or counts/30 minutes, in arbitrary length units. Statistical comparisons are carried out using Student's t-test against the control group. In MK-801 or amphetamine pre-treated animals, statistical comparisons are made against the MK801 or d-amphetamine controls, respectively.

In data set [2] the test system is d-amphetamine pre-treated rats. The data set can be described thus: Reduction of amphetamine-induced hyper-locomotion. The format is in vivo. The settings on record: Rattus norvegicus; rats pre-treated with d-amphetamine 1.5 mg/kg i.p.; test compound 0-100 μmol/kg s.c.; distance during last 45 minutes of one hour. An excerpt:
The increase in activity after treatment with d-amphetamine is a standard model of hyperdopaminergia. In this model, dopaminergic neurotransmission is increased by systemic administration of d-amphetamine at a dose that is sufficiently high to produce a large increase in locomotor activity. The ability of a compound to antagonize this hyperactivity reflects anti-dopaminergic properties. Furthermore, antagonism of d-amphetamine induced hyperactivity is widely used as a standard assay of antipsychotic activity (see Psychopharmacology 4th Generation of progress Chapter 68, p 793-795).
Behavioural activity is measured using eight Digiscan activity monitors (RXYZM (16) TAO, Omnitech Electronics, Columbus, Ohio, USA), connected to an Omnitech Digiscan analyzer and an Apple Macintosh computer equipped with a digital interface board (NB DIO-24, National Instruments, USA). […]
Behavioural data from each activity monitor, representing the position (horizontal center of gravity and vertical activity) of the animal at each time, are recorded at a sampling frequency of 25 Hz and collected using a custom written LABView™ application. The data from each recording session are stored and analyzed with respect to distance traveled. […]
ED50 value for reduction of amphetamine-induced hyper-locomotion is calculated by curve fitting. […]

One may read the melting point as the temperature, or range, at which the solid turns liquid. `CCCCNCCOc1cc(F)cc(S(C)(=O)=O)c1` (as salt: hydrochloric acid salt) [Example 2, N-[2-(3-fluoro-5-methylsulfonyl-phenoxy)ethyl]butan-1-amine] gave a melting point of 204 °C. As to `CCNCCOc1cc(F)cc(S(C)(=O)=O)c1` (as salt: hydrochloric acid salt) [Example 3, N-ethyl-2-(3-fluoro-5-methylsulfonyl-phenoxy)ethanamine], the melting point lay in the range of 200.8 to 201.1 °C. For `CCCN(C)CCOc1cc(F)cc(S(C)(=O)=O)c1` (as salt: hydrochloric acid salt) [Example 4, N-[2-(3-fluoro-5-methylsulfonyl-phenoxy)ethyl]-N-methyl-propan-1-amine], the melting point is 128 to 130 °C.

In the case of `CCC(C)NCCOc1cc(F)cc(S(C)(=O)=O)c1` (stereo not shown) (as salt: hydrochloric acid salt) [Example 5, N-[2-(3-fluoro-5-methylsulfonyl-phenoxy)ethyl]butan-2-amine], the melting point is 166.5 °C.

Compound `CS(=O)(=O)c1cc(F)cc(OCCNC2CCCC2)c1` (as salt: hydrochloric acid salt) [Example 6, N-[2-(3-fluoro-5-methylsulfonyl-phenoxy)ethyl]cyclopentanamine] came in with a melting point of 207.5 °C. For `CCC(C)(C)NCCOc1cc(F)cc(S(C)(=O)=O)c1` (as salt: hydrochloric acid salt) [Example 7, N-[2-(3-fluoro-5-methylsulfonyl-phenoxy)ethyl]-2-methyl-butan-2-amine], the melting point worked out at 190.2 °C. The compound `CS(=O)(=O)c1cc(F)cc(OCCNC2CCC2)c1` (as salt: hydrochloric acid salt) [Example 8, N-[2-(3-fluoro-5-methylsulfonyl-phenoxy)ethyl]cyclobutanamine] displayed a melting point of 202 °C. `CC(C)NCCOc1cc(F)cc(S(C)(=O)=O)c1` (as salt: hydrochloric acid salt) [Example 9, N-[2-(3-fluoro-5-methylsulfonyl-phenoxy)ethyl]propan-2-amine]: the melting point was determined as 173 °C. Compound `CS(=O)(=O)c1cc(F)cc(OCCN2CCCCC2)c1` (as salt: hydrochloric acid salt) [Example 10, 1-[2-(3-fluoro-5-methylsulfonyl-phenoxy)ethyl]piperidine] had a melting point of 194.6 °C. Still for that read-out and setting: the value for `CCN(CC)CCOc1cc(F)cc(S(C)(=O)=O)c1` (as salt: hydrochloric acid salt) [Example 11, N,N-diethyl-2-(3-fluoro-5-methylsulfonyl-phenoxy)ethanamine] was 172.3 °C.

In turn, `CCCNCCOc1cc(Cl)cc(S(C)(=O)=O)c1` (as salt: hydrochloric acid salt) [Example 12, N-[2-(3-chloro-5-methylsulfonyl-phenoxy)ethyl]propan-1-amine] returned a melting point of 195 to 197 °C. The term ED50 denotes the dose at which the effect has come halfway, by size or by number of responders. With `CCCCNCCOc1cc(F)cc(S(C)(=O)=O)c1` [Example 2, N-[2-(3-fluoro-5-methylsulfonyl-phenoxy)ethyl]butan-1-amine], the ED50 in data set [1] was 4.2 µmol/kg. Also, the Locomotor activity in the data set with drug-naive rats (3.7 μmol/kg) was 13941 counts/60 min; in the data set with drug-naive rats (11 μmol/kg) it was 8617 counts/60 min; in the data set with drug-naive rats (33 μmol/kg) it was 6325 counts/60 min. Consider `CCCN(C)CCOc1cc(F)cc(S(C)(=O)=O)c1` [Example 4, N-[2-(3-fluoro-5-methylsulfonyl-phenoxy)ethyl]-N-methyl-propan-1-amine], for which the ED50 in data set [1] is 28.1 µmol/kg; in data set [2], 69 µmol/kg. In addition, the Locomotor activity with drug-naive rats (3.7 μmol/kg) was determined as 11435 counts/60 min; in the data set with drug-naive rats (11 μmol/kg), 10025 counts/60 min; with drug-naive rats (33 μmol/kg), 12829 counts/60 min. Turning to `CS(=O)(=O)c1cc(F)cc(OCCN2CCCCC2)c1` [Example 10, 1-[2-(3-fluoro-5-methylsulfonyl-phenoxy)ethyl]piperidine], in data set [1], the ED50 is 14.5 µmol/kg. Besides, the Locomotor activity turned out to be 11979 counts/60 min with drug-naive rats (3.7 μmol/kg), 9344 counts/60 min in the data set with drug-naive rats (11 μmol/kg) and 8144 counts/60 min in the data set on drug-naive rats (33 μmol/kg). As to `CCCNCCOc1cc(Cl)cc(S(C)(=O)=O)c1` [Example 12, N-[2-(3-chloro-5-methylsulfonyl-phenoxy)ethyl]propan-1-amine], in data set [1], the ED50 was 10.5 µmol/kg. Besides, the Locomotor activity is on record as 14414 counts/60 min with drug-naive rats (3.7 μmol/kg), 12740 counts/60 min in the data set with drug-naive rats (11 μmol/kg) and 7826 counts/60 min in the data set with drug-naive rats (33 μmol/kg).
